Measurements from patent US12077503B2, “Substituted cyclic amides and their use as herbicides” (FMC CORPORATION, priority 2015, dated 2024).

What was measured:
Assay type in all cases: in vivo
[1] = tested on: rice (Oryra sativa); experiment: Test B flooded paddy test; conditions: 250 g ai/ha, Flood, 0 to 100 scale where 0 is no effect and 100 is complete control
Outline: (§1)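 Percent control, visually estimated after 13–15 d in the greenhouse on a 0–100 basis, compares treated pots with untreated ones; compound was put into paddy water 3 cm above the soil when plants had two leaves.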

[2] = tested on: ducksalad (Heteranthera limosa); experiment: Test B flooded paddy test; conditions: 250 g ai/ha, Flood, 0 to 100 scale where 0 is no effect and 100 is complete control
Outline: as §1

[3] = tested on: sedge, umbrella (small-flower umbrella sedge, Cyperus difformis); experiment: Test B flooded paddy test; conditions: 250 g ai/ha, Flood, 0 to 100 scale where 0 is no effect and 100 is complete control
Outline: as §1

[4] = tested on: barnyardgrass (Echinochloa crus-galli); experiment: Test B flooded paddy test; conditions: 250 g ai/ha, Flood, 0 to 100 scale where 0 is no effect and 100 is complete control
Outline: as §1

[5] = tested on: ragweed (common ragweed, Ambrosia elatior); experiment: Test A preemergence
Outline: (§2)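 Visual injury scores from 0, no effect, to 100, complete control, were assigned versus untreated controls roughly 10 d after treatment in the greenhouse. Test chemicals, formulated with surfactant in a non-phytotoxic solvent, were applied to planted seeds as a preemergence soil spray or postemergence to one- to two-leaf plants 2 to 10 cm tall, in loam–sand soil.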

[6] = tested on: Kochia (Kochia scoparia); experiment: Test A preemergence
Outline: as §2

[7] = tested on: giant foxtail (Setaria faberii); experiment: Test A preemergence
Outline: as §2

[8] = tested on: pigweed (Amaranthus retroflexus); experiment: Test A preemergence
[9] = tested on: ryegrass, Italian (Italian ryegrass, Lolium multiflorum); experiment: Test A preemergence
Outline: as §2

[10] = tested on: barnyardgrass (Echinochloa crus-galli); experiment: Test A preemergence
Outline: as §2

[11] = tested on: ragweed (common ragweed, Ambrosia elatior); experiment: Test A postemergence; conditions: for Plant response rating, Ragweed: 0 to 100 scale (0 no effect, 100 complete control)
Outline: as §2

[12] = tested on: Kochia (Kochia scoparia); experiment: Test A postemergence; conditions: for Plant response rating, Kochia: 0 to 100 scale (0 no effect, 100 complete control)
Outline: as §2

[13] = tested on: wheat (Triticum aestivum); experiment: Test A postemergence; conditions: for Plant response rating, Wheat: 0 to 100 scale (0 no effect, 100 complete control)
Outline: as §2

[14] = tested on: Galium (catchweed bedstraw, Galium aparine); experiment: Test A postemergence; conditions: for Plant response rating, Galium: 0 to 100 scale (0 no effect, 100 complete control)
Outline: as §2

[15] = tested on: blackgrass (Alopecurus myosuroides); experiment: Test A postemergence; conditions: for Plant response rating, Blackgrass: 0 to 100 scale (0 no effect, 100 complete control)
Outline: as §2

[16] = tested on: giant foxtail (Setaria faberii); experiment: Test A postemergence; conditions: for Plant response rating, Foxtail, Giant: 0 to 100 scale (0 no effect, 100 complete control)
Outline: as §2

[17] = tested on: corn (Zea mays); experiment: Test A postemergence; conditions: for Plant response rating, Corn: 0 to 100 scale (0 no effect, 100 complete control)
Outline: as §2

[18] = tested on: pigweed (Amaranthus retroflexus); experiment: Test A postemergence; conditions: for Plant response rating, Pigweed: 0 to 100 scale (0 no effect, 100 complete control)
Outline: as §2

[19] = tested on: ryegrass, Italian (Italian ryegrass, Lolium multiflorum); experiment: Test A postemergence; conditions: for Plant response rating, Ryegrass, Italian: 0 to 100 scale (0 no effect, 100 complete control)
Outline: as §2

[20] = tested on: barnyardgrass (Echinochloa crus-galli); experiment: Test A postemergence; conditions: for Plant response rating, Barnyardgrass: 0 to 100 scale (0 no effect, 100 complete control)
Outline: as §2

[21] = 125 g ai/ha, Preemergence, visual injury after approximately 10 d, 0 to 100 scale where 0 is no effect and 100 is complete control
[22] = 500 g ai/ha, preemergence, 0 to 100 scale, 0 = no effect, 100 = complete control
[23] = 125 g ai/ha, postemergence, visual rating after approx. 10 d
[24] = 500 g ai/ha, postemergence, visual injury, approx. 10 d

Cc1ccc([C@H]2CN(C)C(=O)[C@@H]2C(=O)Nc2cccc(C#N)c2F)cc1 [Compound 1188]
60%: pest or weed control at 31 g/ha ([6]; Bassia scoparia, pre-emergence, 240 h, 31 g ai/ha, Preemergence, 0 to 100 scale where 0 is no effect and 100 is complete control, read-out: Kochia plant response rating) | pest or weed control at 125 g/ha ([9]; Lolium multiflorum, pre-emergence, 240 h, 125 g ai/ha, preemergence, visual injury rating, 0 to 100 scale where 0 is no effect and 100 is complete control, approximately 10 d, read-out: Ryegrass, Italian plant response rating) | pest or weed control at 125 g/ha ([14]; Galium, post-emergence, 240 h, 125 g ai/ha, postemergence, visual injury vs untreated controls after approx. 10 d, 0 = no effect, 100 = complete control, read-out: Galium plant response rating (0 to 100 scale))
100%: pest or weed control at 250 g/ha ([2]; Heteranthera limosa, read-out: Ducksalad plant response rating) | pest or weed control at 125 g/ha ([7]; Setaria faberi, pre-emergence, 240 h, 125 g ai/ha, preemergence, visual injury rating, 0 to 100 scale where 0 is no effect and 100 is complete control, approximately 10 d, read-out: Foxtail, Giant plant response rating) | pest or weed control at 125 g/ha ([10]; Echinochloa crus-galli, pre-emergence, 240 h, 125 g ai/ha, preemergence, visual injury rating, 0 to 100 scale where 0 is no effect and 100 is complete control, approximately 10 d, read-out: Barnyardgrass plant response rating) | pest or weed control at 125 g/ha ([20]; Echinochloa crus-galli, post-emergence, 240 h, 125 g ai/ha, postemergence, visual injury vs untreated controls after approx. 10 d, 0 = no effect, 100 = complete control, read-out: Barnyardgrass plant response rating (0 to 100 scale))
40%: pest or weed control at 31 g/ha ([8]; Amaranthus retroflexus, pre-emergence, 240 h, 31 g ai/ha, Preemergence, 0 to 100 scale where 0 is no effect and 100 is complete control, read-out: Pigweed plant response rating) | pest or weed control at 125 g/ha ([11]; Ambrosia artemisiifolia, post-emergence, 240 h, 125 g ai/ha, postemergence, visual injury vs untreated controls after approx. 10 d, 0 = no effect, 100 = complete control, read-out: Ragweed plant response rating (0 to 100 scale)) | plant injury at 125 g/ha ([13]; Triticum aestivum, post-emergence, 240 h, 125 g ai/ha, postemergence, visual injury vs untreated controls after approx. 10 d, 0 = no effect, 100 = complete control, read-out: Wheat plant response rating (0 to 100 scale)) | pest or weed control at 125 g/ha ([19]; Lolium multiflorum, post-emergence, 240 h, 125 g ai/ha, postemergence, visual injury vs untreated controls after approx. 10 d, 0 = no effect, 100 = complete control, read-out: Ryegrass, Italian plant response rating (0 to 100 scale))
15%: pest or weed control at 250 g/ha ([1]; Oryza sativa, read-out: Rice plant response rating)
50%: pest or weed control at 125 g/ha ([12]; Bassia scoparia, post-emergence, 240 h, 125 g ai/ha, postemergence, visual injury vs untreated controls after approx. 10 d, 0 = no effect, 100 = complete control, read-out: Kochia plant response rating (0 to 100 scale)) | pest or weed control at 31 g/ha ([14]; Galium, post-emergence, 240 h, Postemergence, 31 g ai/ha, 0 is no effect, 100 is complete control, read-out: Galium plant response rating (0 to 100 scale)) | plant injury at 125 g/ha ([17]; Zea mays, post-emergence, 240 h, 125 g ai/ha, postemergence, visual injury vs untreated controls after approx. 10 d, 0 = no effect, 100 = complete control, read-out: Corn plant response rating (0 to 100 scale))
90%: pest or weed control at 31 g/ha ([7]; Setaria faberi, pre-emergence, 240 h, 31 g ai/ha, Preemergence, 0 to 100 scale where 0 is no effect and 100 is complete control, read-out: Foxtail, Giant plant response rating) | pest or weed control at 31 g/ha ([10]; Echinochloa crus-galli, pre-emergence, 240 h, 31 g ai/ha, Preemergence, 0 to 100 scale where 0 is no effect and 100 is complete control, read-out: Barnyardgrass plant response rating)
70%: pest or weed control at 125 g/ha ([5]; Ambrosia artemisiifolia, pre-emergence, 240 h, 125 g ai/ha, preemergence, visual injury rating, 0 to 100 scale where 0 is no effect and 100 is complete control, approximately 10 d, read-out: Ragweed plant response rating) | pest or weed control at 125 g/ha ([15]; Alopecurus myosuroides, post-emergence, 240 h, 125 g ai/ha, postemergence, visual injury vs untreated controls after approx. 10 d, 0 = no effect, 100 = complete control, read-out: Blackgrass plant response rating (0 to 100 scale)) | pest or weed control at 31 g/ha ([16]; Setaria faberi, post-emergence, 240 h, Postemergence, 31 g ai/ha, 0 is no effect, 100 is complete control, read-out: Foxtail, Giant plant response rating (0 to 100 scale)) | pest or weed control at 31 g/ha ([20]; Echinochloa crus-galli, post-emergence, 240 h, Postemergence, 31 g ai/ha, 0 is no effect, 100 is complete control, read-out: Barnyardgrass plant response rating (0 to 100 scale))
80%: pest or weed control at 125 g/ha ([6]; Bassia scoparia, pre-emergence, 240 h, 125 g ai/ha, preemergence, visual injury rating, 0 to 100 scale where 0 is no effect and 100 is complete control, approximately 10 d, read-out: Kochia plant response rating) | pest or weed control at 125 g/ha ([8]; Amaranthus retroflexus, pre-emergence, 240 h, 125 g ai/ha, preemergence, visual injury rating, 0 to 100 scale where 0 is no effect and 100 is complete control, approximately 10 d, read-out: Pigweed plant response rating) | pest or weed control at 125 g/ha ([16]; Setaria faberi, post-emergence, 240 h, 125 g ai/ha, postemergence, visual injury vs untreated controls after approx. 10 d, 0 = no effect, 100 = complete control, read-out: Foxtail, Giant plant response rating (0 to 100 scale))
20%: pest or weed control at 125 g/ha ([18]; Amaranthus retroflexus, post-emergence, 240 h, 125 g ai/ha, postemergence, visual injury vs untreated controls after approx. 10 d, 0 = no effect, 100 = complete control, read-out: Pigweed plant response rating (0 to 100 scale))
65%: pest or weed control at 250 g/ha ([4]; Echinochloa crus-galli, read-out: Barnyardgrass plant response rating)
0%: pest or weed control at 250 g/ha ([3]; Cyperus difformis, read-out: Sedge, Umbrella plant response rating) | pest or weed control at 31 g/ha ([9]; Lolium multiflorum, pre-emergence, 240 h, 31 g ai/ha, Preemergence, 0 to 100 scale where 0 is no effect and 100 is complete control, read-out: Ryegrass, Italian plant response rating) | pest or weed control at 31 g/ha ([11]; Ambrosia artemisiifolia, post-emergence, 240 h, Postemergence, 31 g ai/ha, 0 is no effect, 100 is complete control, read-out: Ragweed plant response rating (0 to 100 scale)) | pest or weed control at 31 g/ha ([12]; Bassia scoparia, post-emergence, 240 h, Postemergence, 31 g ai/ha, 0 is no effect, 100 is complete control, read-out: Kochia plant response rating (0 to 100 scale)) | plant injury at 31 g/ha ([13]; Triticum aestivum, post-emergence, 240 h, Postemergence, 31 g ai/ha, 0 is no effect, 100 is complete control, read-out: Wheat plant response rating (0 to 100 scale)) | plant injury at 31 g/ha ([17]; Zea mays, post-emergence, 240 h, Postemergence, 31 g ai/ha, 0 is no effect, 100 is complete control, read-out: Corn plant response rating (0 to 100 scale)) | pest or weed control at 31 g/ha ([18]; Amaranthus retroflexus, post-emergence, 240 h, Postemergence, 31 g ai/ha, 0 is no effect, 100 is complete control, read-out: Pigweed plant response rating (0 to 100 scale)) | pest or weed control at 31 g/ha ([19]; Lolium multiflorum, post-emergence, 240 h, Postemergence, 31 g ai/ha, 0 is no effect, 100 is complete control, read-out: Ryegrass, Italian plant response rating (0 to 100 scale))
30%: pest or weed control at 31 g/ha ([5]; Ambrosia artemisiifolia, pre-emergence, 240 h, 31 g ai/ha, Preemergence, 0 to 100 scale where 0 is no effect and 100 is complete control, read-out: Ragweed plant response rating) | pest or weed control at 31 g/ha ([15]; Alopecurus myosuroides, post-emergence, 240 h, Postemergence, 31 g ai/ha, 0 is no effect, 100 is complete control, read-out: Blackgrass plant response rating (0 to 100 scale))

Cc1ccc(C2CN(C)C(=O)C2C(=O)Nc2ccccc2C(F)(F)F)cc1 (stereo not drawn) [Compound 665]
40: Plant response rating, Blackgrass [15, 23] | Plant response rating, Corn [17, 23]
0: Plant response rating, Sedge, Umbrella ([3]; 13 to 15 d) | Plant response rating, Ragweed [11, 23] | Plant response rating, Kochia [12, 23] | Plant response rating, Pigweed [18, 23]
80: Plant response rating, Ryegrass, Italian [19, 24]
20: Plant response rating, Ragweed [5, 21] | Plant response rating, Ryegrass, Italian [9, 21] | Plant response rating, Pigweed [18, 24]
60: Plant response rating, Kochia [6, 21]
90: Plant response rating, Ducksalad ([2]; 13 to 15 d) | Plant response rating, Ragweed [5, 22] | Plant response rating, Barnyardgrass [10, 21] | Plant response rating, Barnyardgrass [10, 22] | Plant response rating, Foxtail, Giant [16, 23] | Plant response rating, Foxtail, Giant [16, 24] | Plant response rating, Barnyardgrass [20, 23] | Plant response rating, Barnyardgrass [20, 24]
50: Plant response rating, Ryegrass, Italian [9, 22] | Plant response rating, Kochia [12, 24] | Plant response rating, Galium [14, 23] | Plant response rating, Galium [14, 24]
30: Plant response rating, Pigweed [8, 21] | Plant response rating, Pigweed [8, 22] | Plant response rating, Ragweed [11, 24] | Plant response rating, Wheat [13, 23] | Plant response rating, Ryegrass, Italian [19, 23]
100: Plant response rating, Foxtail, Giant [7, 21] | Plant response rating, Foxtail, Giant [7, 22]
70: Plant response rating, Barnyardgrass ([4]; 13 to 15 d) | Plant response rating, Kochia [6, 22] | Plant response rating, Wheat [13, 24] | Plant response rating, Blackgrass [15, 24] | Plant response rating, Corn [17, 24]
25: Plant response rating, Rice ([1]; 13 to 15 d)
